In PubChem BioAssay AID1259407 (Chemical Carcinogenesis Research Information System (CCRIS), 2018):
Active and inactive are the calls of the source. No rule for the calls is given here. *1 amine or outer side, *2 acyl side, *3 side chain or, on linkers, in order; H or OH if unused. Where a SMILES comes first, the peptide text is derived from it. Bridges are numbered along the chain shown (N, C = ends). Roman numbers before positions name the chains, in order. [ ]: non-standard residue; d: D form. Actinocin(9to1) = Cc1c2oc3c(C)ccc(C(=O)[*:1])c3nc-2c(C(=O)[*:2])c(N)c1=O; NMeV = CN[C@H](C(=O)O)C(C)C; Sar = CNCC(=O)O

Test system: CCRIS mutagenicity, Ames/micronucleus/aberration tests
Experiment: CCRIS mutagenicity studies
[1] = Test System: AMES SALMONELLA TYPHIMURIUM, Strain/Indicator: TA98, Metabolic Activation: NONE, Method: STANDARD PLATE
[2] = Test System: AMES SALMONELLA TYPHIMURIUM, Strain/Indicator: TA100, Metabolic Activation: NONE, Method: STANDARD PLATE
[3] = Test System: AMES SALMONELLA TYPHIMURIUM, Strain/Indicator: TA1535, Metabolic Activation: NONE, Method: STANDARD PLATE
[4] = Test System: AMES SALMONELLA TYPHIMURIUM, Strain/Indicator: TA1537, Metabolic Activation: NONE, Method: STANDARD PLATE
[5] = Test System: MOUSE LYMPHOMA, Strain/Indicator: L5178Y (TK+/TK-), Metabolic Activation: NONE, Method: SUSPENSION/PLATE

With `ClNc1nc(NCl)nc(NCl)n1` the mutagenic call (Test System: AMES SALMONELLA TYPHIMURIUM, Strain/Indicator: TA98, Metabolic Activation: HAMSTER, LIVER, S-9, AROCLOR 1254, Method: STANDARD PLATE) was “inactive; negative”, the mutagenic call [1] was “inactive; negative” and the mutagenic call (Test System: AMES SALMONELLA TYPHIMURIUM, Strain/Indicator: TA98, Metabolic Activation: RAT, LIVER, S-9, AROCLOR 1254, Method: STANDARD PLATE) was “inactive; negative”. The mutagenic call (Test System: AMES SALMONELLA TYPHIMURIUM, Strain/Indicator: TA100, Metabolic Activation: HAMSTER, LIVER, S-9, AROCLOR 1254, Method: STANDARD PLATE) was “inactive; negative”, the mutagenic call [2] was “inactive; negative” and the mutagenic call (Test System: AMES SALMONELLA TYPHIMURIUM, Strain/Indicator: TA100, Metabolic Activation: RAT, LIVER, S-9, AROCLOR 1254, Method: STANDARD PLATE) was “inactive; negative”. The mutagenic call (Test System: AMES SALMONELLA TYPHIMURIUM, Strain/Indicator: TA1535, Metabolic Activation: HAMSTER, LIVER, S-9, AROCLOR 1254, Method: STANDARD PLATE) was “inactive; negative”, the mutagenic call [3] was “inactive; negative” and the mutagenic call (Test System: AMES SALMONELLA TYPHIMURIUM, Strain/Indicator: TA1535, Metabolic Activation: RAT, LIVER, S-9, AROCLOR 1254, Method: STANDARD PLATE) was “inactive; negative”. The mutagenic call (Test System: AMES SALMONELLA TYPHIMURIUM, Strain/Indicator: TA1537, Metabolic Activation: HAMSTER, LIVER, S-9, AROCLOR 1254, Method: STANDARD PLATE) was “inactive; negative”, the mutagenic call [4] was “inactive; negative” and the mutagenic call (Test System: AMES SALMONELLA TYPHIMURIUM, Strain/Indicator: TA1537, Metabolic Activation: RAT, LIVER, S-9, AROCLOR 1254, Method: STANDARD PLATE) was “inactive; negative”. The mutagenic call (Test System: AMES SALMONELLA TYPHIMURIUM, Strain/Indicator: TA1538, Metabolic Activation: HAMSTER, LIVER, S-9, AROCLOR 1254, Method: STANDARD PLATE) was “inactive; negative”, the mutagenic call (Test System: AMES SALMONELLA TYPHIMURIUM, Strain/Indicator: TA1538, Metabolic Activation: NONE, Method: STANDARD PLATE) was “inactive; negative” and the mutagenic call (Test System: AMES SALMONELLA TYPHIMURIUM, Strain/Indicator: TA1538, Metabolic Activation: RAT, LIVER, S-9, AROCLOR 1254, Method: STANDARD PLATE) was “inactive; negative”. The mutagenic call [5] was “inactive; negative. reevaluation of results: negative” and the mutagenic call (Test System: Mouse lymphoma, Strain/Indicator: L5178Y (tk+/tk-), Metabolic Activation: Rat, Liver, S-9, Aroclor 1254, Method: Suspension/plate) was “active; positive”.
`C[C@@H]1O[C@H]1C` was tested, and the mutagenic call (Test System: AMES SALMONELLA TYPHIMURIUM, Strain/Indicator: TA100, Metabolic Activation: NONE, Method: FLASK VAPORIZATION) was “active; positive”, the mutagenic call [2] was “active; positive” and the mutagenic call (Test System: AMES SALMONELLA TYPHIMURIUM, Strain/Indicator: TA100, Metabolic Activation: RAT, LIVER, S-9, AROCLOR 1254, Method: FLASK VAPORIZATION) was “active; positive”. The mutagenic call (Test System: AMES SALMONELLA TYPHIMURIUM, Strain/Indicator: TA1535, Metabolic Activation: NONE, Method: FLASK VAPORIZATION) was “active; positive”, the mutagenic call [3] was “active; positive” and the mutagenic call (Test System: AMES SALMONELLA TYPHIMURIUM, Strain/Indicator: TA1535, Metabolic Activation: RAT, LIVER, S-9, AROCLOR 1254, Method: FLASK VAPORIZATION) was “active; positive”.
For `NCCS(=O)(=O)O`, the mutagenic call (Test System: AMES SALMONELLA TYPHIMURIUM, Strain/Indicator: TA97, Metabolic Activation: HAMSTER, LIVER, S-9, AROCLOR 1254 (10 OR 30%), Method: PREINCUBATION) was “inactive; negative”, the mutagenic call (Test System: AMES SALMONELLA TYPHIMURIUM, Strain/Indicator: TA97, Metabolic Activation: NONE, Method: PREINCUBATION) was “inactive; negative” and the mutagenic call (Test System: AMES SALMONELLA TYPHIMURIUM, Strain/Indicator: TA97, Metabolic Activation: RAT, LIVER, S-9, AROCLOR 1254 (10 OR 30%), Method: PREINCUBATION) was “inactive; negative”. The mutagenic call (Test System: AMES SALMONELLA TYPHIMURIUM, Strain/Indicator: TA98, Metabolic Activation: HAMSTER, LIVER, S-9, AROCLOR 1254 (10 OR 30%), Method: PREINCUBATION) was “inactive; negative”, the mutagenic call (Test System: AMES SALMONELLA TYPHIMURIUM, Strain/Indicator: TA98, Metabolic Activation: NONE, Method: PREINCUBATION) was “inactive; negative” and the mutagenic call (Test System: AMES SALMONELLA TYPHIMURIUM, Strain/Indicator: TA98, Metabolic Activation: RAT, LIVER, S-9, AROCLOR 1254 (10 OR 30%), Method: PREINCUBATION) was “inactive; negative”. The mutagenic call (Test System: AMES SALMONELLA TYPHIMURIUM, Strain/Indicator: TA100, Metabolic Activation: HAMSTER, LIVER, S-9, AROCLOR 1254 (10 OR 30%), Method: PREINCUBATION) was “inactive; negative”, the mutagenic call (Test System: AMES SALMONELLA TYPHIMURIUM, Strain/Indicator: TA100, Metabolic Activation: NONE, Method: PREINCUBATION) was “inactive; negative” and the mutagenic call (Test System: AMES SALMONELLA TYPHIMURIUM, Strain/Indicator: TA100, Metabolic Activation: RAT, LIVER, S-9, AROCLOR 1254 (10 OR 30%), Method: PREINCUBATION) was “inactive; negative”. For the same compound, the mutagenic call (Test System: AMES SALMONELLA TYPHIMURIUM, Strain/Indicator: TA1535, Metabolic Activation: HAMSTER, LIVER, S-9, AROCLOR 1254 (10 OR 30%), Method: PREINCUBATION) was “inactive; negative”, the mutagenic call (Test System: AMES SALMONELLA TYPHIMURIUM, Strain/Indicator: TA1535, Metabolic Activation: NONE, Method: PREINCUBATION) was “inactive; negative” and the mutagenic call (Test System: AMES SALMONELLA TYPHIMURIUM, Strain/Indicator: TA1535, Metabolic Activation: RAT, LIVER, S-9, AROCLOR 1254 (10 OR 30%), Method: PREINCUBATION) was “inactive; negative”.
With `Cc1c2oc3c(C)ccc(C(=O)N[C@@H]4C(=O)N[C@H](C(C)C)C(=O)N5CCC[C@H]5C(=O)N(C)CC(=O)N(C)[C@@H](C(C)C)C(=O)O[C@@H]4C)c3nc-2c(C(=O)N[C@@H]2C(=O)N[C@H](C(C)C)C(=O)N3CCC[C@H]3C(=O)N(C)CC(=O)N(C)[C@@H](C(C)C)C(=O)O[C@@H]2C)c(N)c1=O` (I: T[dV]P[Sar][NMeV] / II: T[dV]P[Sar][NMeV]; ester I:1-I:C, II:1-II:C; linker I:N-II:N via Actinocin(9to1)) the mutagenic call (End Point: IN VITRO MICRONUCLEUS, Test System: CHO CELLS, Metabolic Activation: RAT, LIVER, S-9, AROCLOR 1254) was “active; positive”, the mutagenic call (End Point: IN VITRO MICRONUCLEUS, Test System: V79 CELLS, Metabolic Activation: NONE) was “active; positive” and the mutagenic call [1] was “inactive; negative”. For the same compound, the mutagenic call [2] was “inactive; negative”, the mutagenic call (Test System: AMES SALMONELLA TYPHIMURIUM, Strain/Indicator: TA102, Metabolic Activation: NONE, Method: STANDARD PLATE) was “inactive; negative” and the mutagenic call [4] was “inactive; negative”. The mutagenic call (Test System: E. COLI, Strain/Indicator: WP2 (HCR), Metabolic Activation: NONE, Method: STANDARD PLATE) was “inactive; negative” and the mutagenic call [5] was “active; positive”.
In the case of `CC1(C)C(C(=O)OC(C#N)c2cccc(Oc3ccccc3)c2)C1(C)C` (centres undefined), the mutagenic call (End Point: In vitro chromasomal aberrations, Test System: Chinese hamster ovary (CHO-K1) cells, Metabolic Activation: None) is reported as “inactive; negative”, the mutagenic call (End Point: In vitro chromasomal aberrations, Test System: Chinese hamster ovary (CHO-K1) cells, Metabolic Activation: Rat, liver, S-9, PCB) is reported as “inactive; negative” and the mutagenic call [1] is reported as “inactive; negative”. The mutagenic call (Test System: AMES SALMONELLA TYPHIMURIUM, Strain/Indicator: TA98, Metabolic Activation: S-9, Method: STANDARD PLATE) was “inactive; negative”, the mutagenic call [2] was “inactive; negative” and the mutagenic call (Test System: AMES SALMONELLA TYPHIMURIUM, Strain/Indicator: TA100, Metabolic Activation: S-9, Method: STANDARD PLATE) was “inactive; negative”. The mutagenic call [3] was “inactive; negative”, the mutagenic call (Test System: AMES SALMONELLA TYPHIMURIUM, Strain/Indicator: TA1535, Metabolic Activation: S-9, Method: STANDARD PLATE) was “inactive; negative” and the mutagenic call [4] was “inactive; negative”. For the same compound, the mutagenic call (Test System: AMES SALMONELLA TYPHIMURIUM, Strain/Indicator: TA1537, Metabolic Activation: S-9, Method: STANDARD PLATE) was “inactive; negative”, the mutagenic call (Test System: Ames Salmonella typhimurium, Strain/Indicator: TA98, Metabolic Activation: Rat, Liver, S-9, Kanechlor-400, Method: Preincubation) was “inactive; negative” and the mutagenic call (Test System: Ames Salmonella typhimurium, Strain/Indicator: TA100, Metabolic Activation: Rat, Liver, S-9, Kanechlor-400, Method: Preincubation) was “inactive; negative”. The mutagenic call (Test System: Ames Salmonella typhimurium, Strain/Indicator: TA1535, Metabolic Activation: Rat, Liver, S-9, Kanechlor-400, Method: Preincubation) was “inactive; negative”, the mutagenic call (Test System: Ames Salmonella typhimurium, Strain/Indicator: TA1537, Metabolic Activation: Rat, Liver, S-9, Kanechlor-400, Method: Preincubation) was “inactive; negative” and the mutagenic call (Test System: Ames Salmonella typhimurium, Strain/Indicator: TA1538, Metabolic Activation: Rat, Liver, S-9, Kanechlor-400, Method: Preincubation) was “inactive; negative”. The mutagenic call (Test System: E. coli, Strain/Indicator: WP2uvrA, Metabolic Activation: Rat, Liver, S-9, Kanechlor-400, Method: Preincubation) was “inactive; negative”.
